Activity calls are given as the source filed them. The calls are words filed in the database; no cut-off is given here.
Tests used:
Gossypium hirsutum [1] = assay: Phytotoxicity against Gossypium hirsutum (cotton) seedlings assessed as heavily dark-browning with wrinkling measured under dark conditions at 100 uM; format: functional, organism-based
[2] = Dissociation constant, pKa of the compound; format: physicochemical
Lathyrus oleraceus [3] = assay: Inhibition of Succinate-cytochrome c reductase in Pisum sativum (pea) mitochondrial respiratory-chain electron-transport system at 100 uM
Gossypium hirsutum [4] = assay: Phytotoxicity against Gossypium hirsutum (cotton) seedlings assessed as complete killing measured under light conditions at 100 uM; format: functional, organism-based
Gossypium hirsutum [5] = assay: Phytotoxicity against Gossypium hirsutum (cotton) seedlings assessed as damage measured under dark conditions at 100 uM; format: functional, organism-based
Gossypium hirsutum [6] = assay: Phytotoxicity against Gossypium hirsutum (cotton) seedlings assessed as moderate darkening measured under dark conditions at 100 uM; format: functional, organism-based
Gossypium hirsutum [7] = assay: Phytotoxicity against Gossypium hirsutum (cotton) seedlings assessed as cotyledons are killed but stems are not wilted measured under light conditions at 100 uM; format: functional, organism-based
Gossypium hirsutum [8] = assay: Phytotoxicity against Gossypium hirsutum (cotton) seedlings assessed as light darkening measured under dark conditions at 100 uM; format: functional, organism-based
Gossypium hirsutum [9] = assay: Phytotoxicity against Gossypium hirsutum (cotton) seedlings assessed as cotyledons are damaged with green spots measured under light conditions at 100 uM; format: functional
Gossypium hirsutum [10] = assay: Phytotoxicity against Gossypium hirsutum (cotton) seedlings assessed as cotyledons are killed and stems are partially survived measured under light conditions at 100 uM; format: functional, organism-based
Lathyrus oleraceus [11] = assay: Inhibition of Succinate-cytochrome c reductase in Pisum sativum (pea) mitochondrial respiratory-chain electron-transport system at 0.1 uM

SMILES: CC(Cl)/C=C/C(=O)N(Cc1ccc(C#N)cc1)CC(C)C (stereo not given)
- Activity (Gossypium hirsutum [1]): Active
- pKa [2]: 4.82
- inhibition (Lathyrus oleraceus [3]): 4.6%
- Activity (Gossypium hirsutum [4]): Active

SMILES: O=C1C2=C(CCCC2)C(=O)N1c1ccc(Cl)cc1 [CHLOROPHTHALIUM]
- pKa [2]: 6.43

SMILES: COC(=O)CSc1cc(/N=c2\sc(=O)n3n2CCCC3)c(F)cc1Cl
- Activity (Gossypium hirsutum [5]): inactive
- Activity (Gossypium hirsutum [4]): Active

SMILES: CC(Cl)/C=C/C(=O)N(Cc1ccc(Cl)cc1)CC(C)C (stereo not given)
- inhibition (Lathyrus oleraceus [3]): 0%
- Activity (Gossypium hirsutum [6]): Active
- Activity (Gossypium hirsutum [7]): Active

SMILES: CC(Cl)/C=C/C(=O)N(Cc1ccc(S(C)(=O)=O)cc1)CC(C)C (stereo not given)
- Activity (Gossypium hirsutum [8]): Active
- inhibition (Lathyrus oleraceus [3]): 5.8%
- Activity (Gossypium hirsutum [9]): 50%

SMILES: CCOc1cc(Oc2ccc(C(F)(F)F)cc2Cl)ccc1[N+](=O)[O-] [OXYFLUORFEN]
- pKa [2]: 7.63

SMILES: CC(Cl)/C=C/C(=O)N(Cc1ccc(C(F)(F)F)cc1)CC(C)C (stereo not given)
- inhibition (Lathyrus oleraceus [3]): 1.2%
- Activity (Gossypium hirsutum [6]): Active
- Activity (Gossypium hirsutum [9]): 10%

SMILES: O=[N+]([O-])c1ccc(Oc2ccc(Cl)cc2Cl)cc1 [NITROFEN]
- Activity (Gossypium hirsutum [5]): inactive
- Activity (Gossypium hirsutum [9]): 10%

SMILES: CC(C)Oc1cc(-n2nc(C(C)(C)C)oc2=O)c(Cl)cc1Cl
- Activity (Gossypium hirsutum [5]): inactive
- Activity (Gossypium hirsutum [10]): Active

SMILES: CCCCCC[C@H]1C(=O)O[C@H](C)[C@H](NC(=O)c2cccc(NC=O)c2O)C(=O)O[C@@H](C)[C@@H]1OC(=O)CC(C)C
- inhibition (Lathyrus oleraceus [11]): 100%

SMILES: CC(Br)/C=C/C(=O)N(Cc1ccc(Cl)cc1)CC(C)C (stereo not given)
- Activity (Gossypium hirsutum [1]): Active
- inhibition (Lathyrus oleraceus [3]): 0%
- Activity (Gossypium hirsutum [7]): Active
